{"source": "patent US9180215B2", "about": "“Positron emission tomography imaging method” (PURDUE RESEARCH FOUNDATION, priority 2007, dated 2015)", "target": "T1, folate receptors on KB cells (Homo sapiens, UniProt P15328)", "T1 construct": "endogenous in cells; host or cells: KB cells", "T1 sequence (P15328 25-234)": "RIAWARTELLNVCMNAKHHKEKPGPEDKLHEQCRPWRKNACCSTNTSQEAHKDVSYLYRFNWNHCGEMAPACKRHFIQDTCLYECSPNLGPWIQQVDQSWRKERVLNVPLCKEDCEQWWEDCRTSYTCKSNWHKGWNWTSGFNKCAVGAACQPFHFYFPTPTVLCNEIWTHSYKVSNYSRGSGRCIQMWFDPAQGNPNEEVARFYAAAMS", "experiment": "Competitive binding assay using KB cells (displacement of 3H-folic acid)", "conditions": "competitive binding at folate receptors on KB cells, 10 nM 3H-folic acid, 37° C., 1 h", "method": "Competitive binding assay using KB cells. Relative binding affinity of the folate-fluoro-phenyl conjugate was evaluated according to the standard literature protocol by Westerhof et. al. (Mol Pharmacol, 1995, 48, 459-471) and C. P. Leamon et. al. (Bioconjugate Chem., 2006, 17 (5), 1226-1232) with minor modification.\nThen cells were rinsed three times with 250 μL of PBS (phosphate saline buffer) and one time with trichloro-acetic acid. 1% sodium dodecylsulfate (250 μL) in PBS were added to each well and after 10 min cell lysates were transferred to individual vials containing 3 mL of scintillation cocktail and radioactivity was counted."}
{"molecule": "Nc1nc2ncc(CNc3ccc(C(=O)N[C@@H](CCC(=O)NCCNC(=O)CCOCCOCCOCCOCCOCCOCCNC(=O)c4ccc(F)cc4)C(=O)O)cc3)nc2c(=O)[nH]1", "note": "[compound of FIG. 1]", "values": [{"measurement": "Kd", "result": 23.8, "unit": "nM"}]}
